The term IC50 denotes the concentration needed to halve the response being measured.

This note sets out measurements from patent US20260125378A2, “Heterocyclic Compounds” (BeOne Medicines I GmbH, priority 2023, published 2026).

The target of experiment [1] is T1, Full length DGKζ (in-house protein M1-V929) (Homo sapiens, UniProt Q13574).
T1 construct: His (N); TEV site (N); made in house; host or cells: Sf9 insect cells (Bac-to-Bac baculovirus)
As to the kind of experiment: Biochemical DGK IC50 assay (ADP-Glo, lipid micelle substrate), DGKζ. The following applies: 1 hour preincubation, 1 hour reaction, room temperature. In short, it runs like this:
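Full-length human DGKζ (M1-V929, His-TEV tagged, Sf9 baculovirus-expressed) with DAG/PS lipid micelle substrate in octyl glucoside, at room temperature in 50 mM HEPES, 10 mM MgCl2, 0.01 mM CaCl2 buffer.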
A general note: ADP-Glo first removes unused ATP, then detects ADP through luciferase.

The target in experiment [2] is T2, Full length DGKα (D21-10BG, SignalChem) (Homo sapiens, UniProt P23743).
T2 construct: Full length DGKα (D21-10BG, SignalChem); purchased SignalChem D21-10BG
T2 sequence (P23743 whole entry): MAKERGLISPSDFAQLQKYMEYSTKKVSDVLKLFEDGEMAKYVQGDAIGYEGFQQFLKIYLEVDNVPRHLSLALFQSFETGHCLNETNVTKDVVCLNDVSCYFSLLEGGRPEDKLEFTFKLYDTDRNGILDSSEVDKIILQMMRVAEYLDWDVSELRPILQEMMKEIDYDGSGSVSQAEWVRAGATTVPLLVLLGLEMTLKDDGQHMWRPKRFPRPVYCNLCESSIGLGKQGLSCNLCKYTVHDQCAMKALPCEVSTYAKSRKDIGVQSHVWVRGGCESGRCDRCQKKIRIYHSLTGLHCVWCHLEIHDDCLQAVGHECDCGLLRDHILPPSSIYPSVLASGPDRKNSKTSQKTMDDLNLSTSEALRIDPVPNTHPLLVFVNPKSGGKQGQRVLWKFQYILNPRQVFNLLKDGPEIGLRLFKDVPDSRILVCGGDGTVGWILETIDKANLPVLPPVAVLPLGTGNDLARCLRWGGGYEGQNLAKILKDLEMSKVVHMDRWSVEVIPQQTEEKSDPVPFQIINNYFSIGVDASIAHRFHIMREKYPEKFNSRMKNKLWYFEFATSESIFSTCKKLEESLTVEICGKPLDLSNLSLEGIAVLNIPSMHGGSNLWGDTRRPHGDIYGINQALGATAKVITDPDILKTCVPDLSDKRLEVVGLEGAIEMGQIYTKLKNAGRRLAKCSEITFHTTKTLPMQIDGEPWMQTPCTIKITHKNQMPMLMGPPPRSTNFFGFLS
Description: Biochemical DGK IC50 assay (ADP-Glo, lipid micelle substrate), DGKα. As to conditions: 1 hour preincubation, 1 hour reaction, room temperature. In short, it runs like this:
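Full-length human DGKα with DAG/PS lipid micelle substrate (in octyl glucoside buffer), reacted 1 h at room temperature in 50 mM HEPES, 10 mM MgCl2, 0.01 mM CaCl2, 0.1 mM Na3VO4, 0.01% BSA, 0.005% Tween-20. ADP formed read by ADP-Glo luminescence; IC50 from inhibition across increasing compound concentrations.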

T1 sequence (Q13574 1-929 isoform Q13574-4): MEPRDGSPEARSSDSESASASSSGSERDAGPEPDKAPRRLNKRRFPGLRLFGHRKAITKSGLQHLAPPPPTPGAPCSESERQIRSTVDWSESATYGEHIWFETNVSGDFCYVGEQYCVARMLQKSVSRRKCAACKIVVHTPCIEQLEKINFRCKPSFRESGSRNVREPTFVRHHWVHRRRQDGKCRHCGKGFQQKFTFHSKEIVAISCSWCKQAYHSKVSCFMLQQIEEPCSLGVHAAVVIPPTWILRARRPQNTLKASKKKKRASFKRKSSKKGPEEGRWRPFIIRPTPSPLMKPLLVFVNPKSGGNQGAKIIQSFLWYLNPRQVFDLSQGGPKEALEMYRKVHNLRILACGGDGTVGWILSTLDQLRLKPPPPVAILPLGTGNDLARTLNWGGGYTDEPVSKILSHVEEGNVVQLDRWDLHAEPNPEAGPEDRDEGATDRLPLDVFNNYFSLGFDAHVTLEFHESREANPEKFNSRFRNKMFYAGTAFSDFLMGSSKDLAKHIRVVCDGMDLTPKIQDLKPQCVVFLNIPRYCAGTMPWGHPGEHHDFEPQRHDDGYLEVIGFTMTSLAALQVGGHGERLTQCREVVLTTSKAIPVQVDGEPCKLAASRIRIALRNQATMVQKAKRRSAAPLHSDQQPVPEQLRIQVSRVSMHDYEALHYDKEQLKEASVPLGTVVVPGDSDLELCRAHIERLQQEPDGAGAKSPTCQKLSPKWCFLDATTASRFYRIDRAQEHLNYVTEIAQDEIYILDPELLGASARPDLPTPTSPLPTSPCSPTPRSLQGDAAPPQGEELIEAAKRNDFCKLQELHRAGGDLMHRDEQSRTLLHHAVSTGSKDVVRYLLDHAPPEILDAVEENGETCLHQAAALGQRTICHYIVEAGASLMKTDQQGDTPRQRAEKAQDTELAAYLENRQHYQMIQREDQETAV

With `CC(c1cc(F)c2c(c1)OC(C)(C)CO2)N1C[C@H](C)N(c2nc(=O)n(C)c3c2nc(CC#N)n3C)C[C@H]1C` (single isomer, unassigned) [Compound A68a], the results for the IC50 in experiment [1] and in experiment [2] were 0.002 µM and 20.3 µM, respectively.
Turning to `Cc1ccc(C(C)N2C[C@H](C)N(c3nc(=O)n(C)c4c3nc(CC#N)n4C)C[C@H]2C)c(C(F)(F)F)c1` (single isomer, unassigned) [Compound A32a], the IC50 in experiment [1] is 3.74 µM; in experiment [2], greater than 10 µM.
The like results for `CCCn1c(CC#N)nc2c(N3C[C@@H](C)N(C(C)c4ccc5c(c4)OC(C)(C)CO5)C[C@@H]3C)nc(=O)n(C)c21` (stereo partly drawn) [Compound A88, 2-(6-((2S,5R)-4-(1-(3,3-dimethyl-2,3-dihydrobenzo[b][1,4]dioxin-6-yl)ethyl)-2,5-dimethylpiperazin-1-yl)-3-methyl-2-oxo-9-propyl-3,9-dihydro-2H-purin-8-yl)acetonitrile] were, in that order, 0.004 µM and 111 µM.
`CC(c1cc2c(cc1F)OCC(C)(C)O2)N1C[C@H](C)N(c2nc(=O)n(C)c3c2nc(CC#N)n3C)C[C@H]1C` (stereo partly drawn) [Compound A69, 2-(6-((2S,5R)-4-(1-(7-fluoro-3,3-dimethyl-2,3-dihydrobenzo[b][1,4]dioxin-6-yl)ethyl)-2,5-dimethylpiperazin-1-yl)-3,9-dimethyl-2-oxo-3,4,5,9-tetrahydro-2H-purin-8-yl)acetonitrile]: the values for the 50% inhibitory concentration (IC50) in experiment [1] and in experiment [2] were 0.006 µM and 3.07 µM, respectively.
The like results for `CCn1c(CC#N)nc2c(N3C[C@@H](C)N(C(C)c4cccc(C(F)(F)F)c4)C[C@@H]3C)nc(=O)n(C)c21` (single isomer, unassigned) [Compound A42b] were, in that order, 0.285 µM and 118 µM.
As for `CC[C@H]1CN(C(C)c2ccc3c(c2)OC(C)(C)CO3)[C@H](CC)CN1c1nc(=O)n(C)c2c1nc(CC#N)n2C` (single isomer, unassigned) [Compound A64b], the IC50 is 0.014 µM in experiment [1] and 4.75 µM in experiment [2].
Turning to `CC(c1ccc(F)cc1C(F)(F)F)N1C[C@H](C)N(c2nc(=O)n(C)c3c2nc(CC#N)n3C)C[C@H]1C` (single isomer, unassigned) [Compound A33a], the IC50 in experiment [1] is 0.804 µM; in experiment [2], greater than 10 µM.
The like results for `CCn1c(CC#N)nc2c(N3C[C@@H](C)N(C(C)c4cccc(OC(C)C)n4)C[C@@H]3C)nc(=O)n(C)c21` (single isomer, unassigned) [Compound A117b] were, in that order, 0.075 µM and 145 µM.
Consider `CCn1c(CC#N)nc2c(N3C[C@@H](C)N(C(C)c4cc5c(cc4F)OCC(C)(C)O5)C[C@@H]3C)nc(=O)n(C)c21` (single isomer, unassigned) [Compound A157b], for which the IC50 is 0.346 µM in experiment [1] and 55.7 µM in experiment [2].
Consider `CCn1c(CC#N)nc2c(N3C[C@@H](C)N(C(C)c4ccc5nc(C)sc5c4)C[C@@H]3C)nc(=O)n(C)c21` (single isomer, unassigned) [Compound A56a], for which the IC50 is 0.81 µM in experiment [1] and 108 µM in experiment [2].
In the case of `CCn1c(CC#N)nc2c(N3C[C@@H](C)N(C(C)c4cccc(C(C)(C)CO)c4)C[C@@H]3C)nc(=O)n(C)c21` (stereo partly drawn) [Compound A133, 2-(9-ethyl-6-((2S,5R)-4-(1-(3-(1-hydroxy-2-methylpropan-2-yl)phenyl)ethyl)-2,5-dimethylpiperazin-1-yl)-3-methyl-2-oxo-3,9-dihydro-2H-purin-8-yl)acetonitrile], the IC50 in experiment [1] is 0.111 µM; in experiment [2] it was greater than 150 µM.
For the compound `CC(c1ccc2c(c1)OC(C)(C)O2)N1C[C@H](C)N(c2nc(=O)n(C)c3c2nc(CC#N)n3C)C[C@H]1C` (single isomer, unassigned) [Compound A98b], the half-maximal inhibitory concentration (IC50) came to 0.262 µM in experiment [1] and 19.7 µM in experiment [2].
`CC(c1ccc2nccnc2c1)N1C[C@H](C)N(c2cc(=O)n(C)c3sc(CC#N)nc23)C[C@H]1C` (single isomer, unassigned) [Compound A194a]: the figures for the IC50 in experiment [1] and in experiment [2] were 0.007 µM and 3.95 µM, respectively.
The corresponding values for `CCn1c(CC#N)nc2c(N3C[C@@H](C)N(C(C)c4ccc5c(c4)C(C)(C)CO5)C[C@@H]3C)nc(=O)n(C)c21` (stereo partly drawn) [Compound A183, 2-(6-((2S,5R)-4-(1-(3,3-dimethyl-2,3-dihydrobenzofuran-5-yl)ethyl)-2,5-dimethylpiperazin-1-yl)-9-ethyl-3-methyl-2-oxo-3,9-dihydro-2H-purin-8-yl)acetonitrile] are 0.004 µM and greater than 150 µM.
Consider `CCn1c(CC#N)nc2c(N3C[C@@H](C)N(C(C)c4cccc(N5CCOCC5)c4)C[C@@H]3C)nc(=O)n(C)c21` (stereo partly drawn) [Compound A141, 2-(6-((2S,5R)-2,5-dimethyl-4-(1-(3-morpholinophenyl)ethyl)piperazin-1-yl)-9-ethyl-3-methyl-2-oxo-3,9-dihydro-2H-purin-8-yl)acetonitrile], for which the IC50 is 1.29 µM in experiment [1] and greater than 150 µM in experiment [2].
The corresponding values for `CC(c1ccc2c(c1)OC(C)(C)CO2)N1C[C@H](C)N(c2nc(=O)n(C)c3c2nc(CC#N)n3C2CC2)C[C@H]1C` (stereo partly drawn) [Compound A86, 2-(9-cyclopropyl-6-((2S,5R)-4-(1-(3,3-dimethyl-2,3-dihydrobenzo[b][1,4]dioxin-6-yl)ethyl)-2,5-dimethylpiperazin-1-yl)-3-methyl-2-oxo-3,9-dihydro-2H-purin-8-yl)acetonitrile] are 0.067 µM and greater than 150 µM.
Take `CCn1c(CC#N)nc2c(N3C[C@@H](C)N(C(C)c4cccc(CN5CCOCC5)c4)C[C@@H]3C)nc(=O)n(C)c21` (stereo partly drawn) [Compound A142, 2-(6-((2S,5R)-2,5-dimethyl-4-(1-(3-(morpholinomethyl)phenyl)ethyl)piperazin-1-yl)-9-ethyl-3-methyl-2-oxo-3,9-dihydro-2H-purin-8-yl)acetonitrile]: the IC50 in experiment [1] is 6.3 µM; in experiment [2], greater than 150 µM.
With `CC(c1ccc(F)cc1C(F)(F)F)N1C[C@H](C)N(c2cc(=O)n(C)c3c2nc(CC#N)n3C)C[C@H]1C` (stereo partly drawn) [Compound A2, 2-(7-((2S,5R)-4-(1-(4-fluoro-2-(trifluoromethyl)phenyl)ethyl)-2,5-dimethylpiperazin-1-yl)-3,4-dimethyl-5-oxo-4,5-dihydro-3H-imidazo[4,5-b]pyridin-2-yl)acetonitrile], the IC50 in experiment [1] was 0.092 µM; in experiment [2] it was greater than 150 µM.
Turning to `CCn1c(CC#N)nc2c(N3C[C@@H](C)N(C(C)c4ccc5c(c4)C(=O)N(C(C)C)C5=O)C[C@@H]3C)nc(=O)n(C)c21` (stereo partly drawn) [Compound A178, 2-(9-ethyl-6-((2S,5R)-4-(1-(2-isopropyl-1,3-dioxoisoindolin-5-yl)ethyl)-2,5-dimethylpiperazin-1-yl)-3-methyl-2-oxo-3,9-dihydro-2H-purin-8-yl)acetonitrile], the results for the IC50 in experiment [1] and in experiment [2] were 0.015 µM and 92.4 µM, respectively.
Turning to `CCn1c(CC#N)nc2c(N3C[C@@H](C)N(C(C)c4ccc5c(n4)OC(C)(C)CO5)C[C@@H]3C)nc(=O)n(C)c21` (single isomer, unassigned) [Compound A74a], the results for the IC50 in experiment [1] and in experiment [2] were 0.046 µM and greater than 150 µM, respectively.
In the case of `CCn1c(CC#N)nc2c(N3C[C@@H](C)N(C(C)c4ccc5c(c4)C(=O)N(C)C5)C[C@@H]3C)nc(=O)n(C)c21` (stereo partly drawn) [Compound A100, 2-(6-((2S,5R)-2,5-dimethyl-4-(1-(2-methyl-3-oxoisoindolin-5-yl)ethyl)piperazin-1-yl)-9-ethyl-3-methyl-2-oxo-3,9-dihydro-2H-purin-8-yl)acetonitrile], the IC50 in experiment [1] was 4.11 µM; in experiment [2], greater than 150 µM.
As for `Cc1ccc(C(C)N2C[C@H](C)N(c3c(F)c(=O)n(C)c4c3nc(CC#N)n4C)C[C@H]2C)c(C(F)(F)F)c1` (single isomer, unassigned) [Compound A15b], the IC50 was 0.291 µM in experiment [1] and greater than 10 µM in experiment [2].
In the case of `CCn1c(CC#N)nc2c(N3C[C@@H](C)N(C(C)c4ccnc(C(=O)NC)c4)C[C@@H]3C)nc(=O)n(C)c21` (stereo partly drawn) [Compound A130, 4-(1-((2R,5S)-4-(8-(cyanomethyl)-9-ethyl-3-methyl-2-oxo-3,9-dihydro-2H-purin-6-yl)-2,5-dimethylpiperazin-1-yl)ethyl)-N-methylpicolinamide], the IC50 was 3.9 µM in experiment [1] and greater than 150 µM in experiment [2].
The like results for `CCn1c(CC#N)nc2c(N3C[C@@H](C)N(C(C)c4cccc(OC(C)C)n4)C[C@@H]3C)nc(=O)n(C)c21` (single isomer, unassigned) [Compound A117a] were, in that order, 3.3 µM and greater than 150 µM.
With `CCn1c(CC#N)nc2c(N3C[C@@H](C)N(C(C)c4cc5c(cc4Cl)OCC(C)(C)O5)C[C@@H]3C)nc(=O)n(C)c21` (stereo partly drawn) [Compound A73, 2-(6-((2S,5R)-4-(1-(7-chloro-3,3-dimethyl-2,3-dihydrobenzo[b][1,4]dioxin-6-yl)ethyl)-2,5-dimethylpiperazin-1-yl)-9-ethyl-3-methyl-2-oxo-3,9-dihydro-2H-purin-8-yl)acetonitrile], the IC50 in experiment [1] was 0.639 µM; in experiment [2], greater than 150 µM.
Take `CCn1c(CC#N)nc2c(N3C[C@@H](C)N(C(C)c4ccc(F)c5c4OC(C)(C)O5)C[C@@H]3C)nc(=O)n(C)c21` (single isomer, unassigned) [Compound A185b]: the IC50 in experiment [1] stood at 0.02 µM; in experiment [2], 82.5 µM.
On to `CCn1c(CC#N)nc2c(N3C[C@@H](C)N(C(C)c4ccc(C(F)(F)F)c(C)c4)C[C@@H]3C)nc(=O)n(C)c21` (stereo partly drawn) [Compound A137, 2-(6-((2S,5R)-2,5-dimethyl-4-(1-(3-methyl-4-(trifluoromethyl)phenyl)ethyl)piperazin-1-yl)-9-ethyl-3-methyl-2-oxo-3,9-dihydro-2H-purin-8-yl)acetonitrile], for which the IC50 in experiment [1] worked out at 0.064 µM; in experiment [2] it was 48.7 µM.
